We go through 40 compounds from ChEMBL document CHEMBL4483862, “Open-source discovery of chemical leads for next-generation chemoprotective antimalarials” (2018).

Broadly, the IC50 is the midpoint of a concentration-inhibition curve. A word on the IC90: it is the concentration needed for an effect of 90%.

The assay concerns Plasmodium berghei. The experiment in a line: Luciferase/luciferin-expressing antifolate-resistant parasites were used to infect a culture of HepG2 cells that were pre-incubated with compounds. Infected hepatocytes emit light due to the luciferase reaction. Assay results are presented as the percent inhibition of light emission compared to control. […]. The format is functional. Conditions: sporozoite; for IC90: read-out: LUCIFERASE INFECTION ASSAY - IC90.

Where [1] appears, read: read-out: LUCIFERASE INFECTION ASSAY - IC50.

`Clc1cccc(-c2cc3c(Nc4ccccn4)nccc3[nH]2)c1`: the IC90 came to 6.66 µM. Besides, under setting [1], the IC50 turned out to be 6.48 µM.
For the compound `Clc1cnc(N/N=C/c2sc(N3CCCCC3)nc2-c2cccs2)c(Cl)c1`, the IC90 is 9.96 µM. Moreover, for the setting “HEPG2TOX_HILL_SLOPE 1.78, HEPG2TOX_R_SQUARED 0.499, PBLUC_HILL_SLOPE 5.62, PBLUC_R_SQUARED 0.563, read-out: LUCIFERASE INFECTION ASSAY - IC50”, the IC50 was found to be 6.74 µM.
`Oc1c2n(c(=S)n1-c1ccc(Cl)cc1)CCS2`: the concentration for an effect of 90% (IC90) is over 11.6 µM. Besides, the IC50 (FFLUC_HILL_SLOPE 3.58, FFLUC_R_SQUARED 0.45, PBLUC_HILL_SLOPE 7.55, PBLUC_R_SQUARED 0.0946, read-out: LUCIFERASE INFECTION ASSAY - IC50) stood at 10.5 µM.
With `O=C(Nc1nc(CN2CCOCC2)cs1)c1ccc(-c2ccccc2)cc1`, the 90% effect concentration (IC90) was over 10 µM. Also, the IC50 (HEPG2TOX_HILL_SLOPE 0.446, HEPG2TOX_R_SQUARED 0.661, PBLUC_HILL_SLOPE 0.824, PBLUC_R_SQUARED 0.624, read-out: LUCIFERASE INFECTION ASSAY - IC50) was 0.817 µM.
Take `CCNC(=S)N/N=C/c1cc(Cl)cc(Cl)c1O`: the 90% effect concentration (IC90) is over 11.3 µM. Moreover, under “PBLUC_HILL_SLOPE 1.17, PBLUC_R_SQUARED 0.411, read-out: LUCIFERASE INFECTION ASSAY - IC50”, the IC50 is over 11.3 µM.
On to `CN(C(=O)CN1CCc2ccccc2C1)C1(C#N)CCCCC1`, for which the IC90 was over 10 µM. Further, the half-inhibitory concentration (IC50) under setting [1] was over 10 µM.
As for `CCn1c2ccccc2c2cc(NC(C)C(=O)N3CCNC3=O)ccc21` (stereo not given), the concentration for an effect of 90% (IC90) is 4.48 µM. Further, for the setting “PBLUC_HILL_SLOPE 2.83, PBLUC_R_SQUARED 0.574, read-out: LUCIFERASE INFECTION ASSAY - IC50”, the half-inhibitory concentration (IC50) is 2.06 µM.
`CCc1ccc(CC)c(-c2csc(N/C(C)=C(\C#N)C(N)=O)n2)c1`: the IC90 was over 10 µM. The IC50 (HEPG2TOX_HILL_SLOPE 12.4, HEPG2TOX_R_SQUARED 0.749, PBLUC_HILL_SLOPE 4.61, PBLUC_R_SQUARED 0.122, read-out: LUCIFERASE INFECTION ASSAY - IC50) stood at 8.16 µM.
Take `CCOc1cc2c(cc1CNC(=O)c1cccc(NC(=O)c3cccs3)c1)OC(C)C2` (stereo not given): the IC90 was over 10 µM. Besides, the 50% inhibitory concentration (IC50) (PBLUC_HILL_SLOPE 17.6, PBLUC_R_SQUARED 0.496, read-out: LUCIFERASE INFECTION ASSAY - IC50) is 9.52 µM.
For `O=C(c1cncn1-c1ccccc1)N1CC=C(c2ccccc2)CC1`, the IC90 was over 10 µM. For the same compound, the IC50 (HEPG2TOX_HILL_SLOPE 2.04, HEPG2TOX_R_SQUARED 0.78, PBLUC_HILL_SLOPE 1.11, PBLUC_R_SQUARED 0.463, read-out: LUCIFERASE INFECTION ASSAY - IC50) is 4.38 µM.
For `COc1ccc(-c2cnc3cnc(-c4ccc(CNc5ccccc5)cc4)cn23)cc1`, the IC90 was over 8.12 µM. The half-inhibitory concentration (IC50) (FFLUC_HILL_SLOPE 9.54, FFLUC_R_SQUARED 0.167, PBLUC_HILL_SLOPE 2.96, PBLUC_R_SQUARED 0.482, read-out: LUCIFERASE INFECTION ASSAY - IC50) was 4.66 µM.
On to `COC(=O)c1c(C)[nH]c(C2=NNC(=NC3CC3)SC2)c1C`, for which the concentration for an effect of 90% (IC90) is 0.0583 µM. In addition, for the setting “FFLUC_HILL_SLOPE 1.61, FFLUC_R_SQUARED 0.895, PBLUC_HILL_SLOPE 1.62, PBLUC_R_SQUARED 0.572, read-out: LUCIFERASE INFECTION ASSAY - IC50”, the half-inhibitory concentration (IC50) came to 0.015 µM.
Consider `COC(=O)c1cc(OC)c(OC)cc1NS(=O)(=O)c1ccc(Cl)cc1`, for which the concentration for an effect of 90% (IC90) is 2.91 µM. For the same compound, the IC50 under setting [1] was determined as 2.84 µM.
On to `Cc1sc(NC(=O)CC(C)NC(=O)c2ccccc2)nc1-c1ccc(F)c(F)c1` (stereo not given), for which the IC90 was over 10 µM. Also, the IC50 under setting [1] was over 10 µM.
Regarding `c1ccc(CCNc2nccc3nc(-c4ccccc4)[nH]c23)cc1`, the concentration for an effect of 90% (IC90) came to 4.09 µM. Besides, the IC50 (HEPG2TOX_HILL_SLOPE 7.38, HEPG2TOX_R_SQUARED 0.753, PBLUC_HILL_SLOPE 1.8, PBLUC_R_SQUARED 0.435, read-out: LUCIFERASE INFECTION ASSAY - IC50) stood at 1.21 µM.
As to `COc1cc(Nc2ncc3c(n2)CCN(C(=O)Nc2ccc(OC(F)(F)F)cc2)C3)cc(OC)c1OC`, the 90% effect concentration (IC90) is over 6.35 µM. Further, the IC50 (HEPG2TOX_HILL_SLOPE 2.89, HEPG2TOX_R_SQUARED 0.596, read-out: LUCIFERASE INFECTION ASSAY - IC50) is over 6.35 µM.
As for `COc1ccc(OC)c(CN2CCN(c3nc(-c4cccnc4)nc4sc(C)c(C)c34)CC2)c1`, the IC90 worked out at 6.84 µM. The IC50 (PBLUC_HILL_SLOPE 4.71, PBLUC_R_SQUARED 0.569, read-out: LUCIFERASE INFECTION ASSAY - IC50) stood at 4.29 µM.
Regarding `Cc1ccc(NC(=O)C(Sc2nnc3n(-c4ccccc4)c(=O)c4ccccc4n23)c2ccccc2)c([N+](=O)[O-])c1` (stereo not given), the 90% effect concentration (IC90) was over 10 µM. Also, the IC50 (PBLUC_HILL_SLOPE 11.5, 36.4, PBLUC_R_SQUARED 0.176, 0.319, read-out: LUCIFERASE INFECTION ASSAY - IC50) turned out to be 9.56 µM.
`CN(Cc1cccc(Cl)c1Cl)C(C(=O)Nc1ccc(Cl)c(C(F)(F)F)c1)c1ccccc1` (stereo not given): the IC90 was over 10 µM. In addition, for the setting “FFLUC_HILL_SLOPE 15.8, FFLUC_R_SQUARED 0.442, HEPG2TOX_HILL_SLOPE 1.06, HEPG2TOX_R_SQUARED 0.598, PBLUC_HILL_SLOPE 0.733, PBLUC_R_SQUARED 0.344, read-out: LUCIFERASE INFECTION ASSAY - IC50”, the half-maximal inhibitory concentration (IC50) amounted to 7.46 µM.
Regarding `CC(OC(=O)c1cc(-c2ccccc2)nc2c1cnn2Cc1ccccc1)C(=O)NC(C)(C)C` (stereo not given), the IC90 is 6.73 µM. Moreover, where the note is “PBLUC_HILL_SLOPE 5.07, PBLUC_R_SQUARED 0.772, read-out: LUCIFERASE INFECTION ASSAY - IC50”, the IC50 is 4.36 µM.
As for `O=C(Nc1nc2ccc(Oc3ccccc3)cc2s1)c1ccc(S(=O)(=O)C(F)F)cc1`, the IC90 was over 10 µM. Also, the IC50 (HEPG2TOX_HILL_SLOPE 10.3, HEPG2TOX_R_SQUARED 0.512, read-out: LUCIFERASE INFECTION ASSAY - IC50) was over 10 µM.
Turning to `CC(OC(=O)c1cccc(Cl)c1N)C(=O)N(C(C)C)C(C)C` (stereo not given), the IC90 was over 10 µM. Besides, under setting [1], the IC50 is over 10 µM.
Consider `COc1ccc(NC(=O)C(OC(=O)c2ccccc2SCC(=O)Nc2c(C)n(C)n(-c3ccccc3)c2=O)c2ccccc2)cc1Cl` (stereo not given), for which the concentration for an effect of 90% (IC90) is over 10 µM. Moreover, the half-inhibitory concentration (IC50) under setting [1] was over 10 µM.
On to `Cc1ccc2nc(NC(=O)c3ccc(F)c(F)c3)c(C(=O)NC3CCCC3)n2c1`, for which the 90% effect concentration (IC90) amounted to 1.33 µM. In addition, the IC50 (FFLUC_HILL_SLOPE 15.6, FFLUC_R_SQUARED 0.751, HEPG2TOX_HILL_SLOPE 0.983, HEPG2TOX_R_SQUARED 0.896, PBLUC_HILL_SLOPE 4.3, PBLUC_R_SQUARED 0.744, read-out: LUCIFERASE INFECTION ASSAY - IC50) was 0.8 µM.
On to `Cc1cccc(OC2CCN(C(=O)NCc3cc[nH]n3)CC2)c1C`, for which the 90% effect concentration (IC90) was over 10 µM. Besides, under setting [1], the IC50 is over 10 µM.
Consider `CC(=O)c1c(C)[nH]c(-c2csc(-c3ccc(C)cc3C)n2)c1C`, for which the concentration for an effect of 90% (IC90) is 5.96 µM. In addition, where the note is “PBLUC_HILL_SLOPE 2.12, PBLUC_R_SQUARED 0.351, read-out: LUCIFERASE INFECTION ASSAY - IC50”, the half-inhibitory concentration (IC50) amounted to 2.12 µM.
Take `CCCNc1nc(-c2ccccc2)c(C(=O)OCC)cc1C#N`: the 90% effect concentration (IC90) worked out at 3.12 µM. For the same compound, the IC50 (HEPG2TOX_HILL_SLOPE 1.25, HEPG2TOX_R_SQUARED 0.958, PBLUC_HILL_SLOPE 3.81, PBLUC_R_SQUARED 0.673, read-out: LUCIFERASE INFECTION ASSAY - IC50) worked out at 1.75 µM.
For the compound `NC(=O)N1CCCC(C(=O)N2CCCC(c3nc4ccccc4s3)C2)C1` (stereo not given), the IC90 was over 10 µM. The IC50 under setting [1] was over 10 µM.
On to `CC(C)c1cccc(Nc2ccc3nnc(C(F)(F)F)n3n2)c1`, for which the concentration for an effect of 90% (IC90) is over 10 µM. Besides, the half-inhibitory concentration (IC50) under setting [1] is over 10 µM.
Consider `Cc1c(C)n(Cc2ccccc2)c2ncn3nc(-c4ccccn4)nc3c12`, for which the concentration for an effect of 90% (IC90) is over 9.31 µM. Further, the 50% inhibitory concentration (IC50) under setting [1] was over 9.31 µM.
As to `Cc1c(C#N)nn(-c2cccc(Cl)c2)c(=O)c1C#N`, the 90% effect concentration (IC90) was over 12.2 µM. For the same compound, the IC50 under setting [1] is over 12.2 µM.
Take `O=C(c1ccc(O)cc1)C1CCN(C(=O)c2cccc(N3CCCC3=O)c2)CC1`: the IC90 is over 10 µM. Further, the IC50 under setting [1] was over 10 µM.
As to `Cn1ccc2cc(-c3cn4c(-c5ccc6c(c5)OCO6)cnc4cn3)ccc21`, the IC90 is 0.402 µM. For the setting “HEPG2TOX_HILL_SLOPE 0.831, HEPG2TOX_R_SQUARED 0.884, PBLUC_HILL_SLOPE 11.3, PBLUC_R_SQUARED 0.726, read-out: LUCIFERASE INFECTION ASSAY - IC50”, the IC50 was found to be 0.33 µM.
As for `Cc1ccc(CCC2CCN(C(C)C(=O)Nc3cccc(S(N)(=O)=O)c3)CC2)cc1` (stereo not given), the IC90 was over 10 µM. Besides, the IC50 under setting [1] worked out at 6.94 µM.
For `COc1cc(/C=C2/C(=O)N(C)c3ccccc32)cc(OC)c1` the same measures were over 10 µM and over 10 µM.
For `COc1ccc(-c2csc(NC(=O)c3cc4cc5ccc(OC)cc5nc4s3)n2)cc1`, the IC90 was over 10 µM. The IC50 under setting [1] is over 10 µM.
For the compound `Cc1ccc(Nc2nc(NCCO)c3ccccc3n2)cc1`, the 90% effect concentration (IC90) is over 10 µM. In addition, the IC50 under setting [1] is 4.79 µM.
Regarding `O=C(CN1CCN(CC(=O)N(Cc2ccccc2)Cc2ccccc2)CC1)Nc1ccc(Cl)c(C(F)(F)F)c1`, the IC90 is over 10 µM. Further, the IC50 (PBLUC_HILL_SLOPE 18.3, PBLUC_R_SQUARED 0.38, read-out: LUCIFERASE INFECTION ASSAY - IC50) was determined as 9.55 µM.
In the case of `COc1ccc(CCn2nc(C(=O)N(C)C)c3c2CCN(CCCc2ccccc2)C3)cc1`, the IC90 is over 7.39 µM. For the same compound, the IC50 under setting [1] was over 7.39 µM.
As for `Cc1ccc(NCC(=O)NC(=O)Nc2cccc(C)c2C)cc1S(=O)(=O)N1CCCCC1`, the IC90 is over 10 µM. The IC50 (HEPG2TOX_HILL_SLOPE 1.43, HEPG2TOX_R_SQUARED 0.867, PBLUC_HILL_SLOPE 1.55, PBLUC_R_SQUARED 0.466, read-out: LUCIFERASE INFECTION ASSAY - IC50) came out at 2.55 µM.
